Patent US11324832B2, “Tripartite modulators of endosomal G protein-coupled receptors” (Endosome Therapeutics, Inc., priority 2015, dated 2022)
Where a SMILES comes first, the peptide text is derived from it. [ ]: non-standard residue; d: D form. The star is where a group is joined. X1 = CC(C)CCC[C@@H](C)[C@H]1CC[C@H]2[C@@H]3CC[C@H]4C[C@@H](O*)CC[C@]4(C)[C@H]3CC[C@]12C; PEG4 = NCCOCCOCCOCCOCCC(=O)O; PEG3 = NCCOCCOCCOCCC(=O)O

Experiments:
[1] = tested on: NK1R; assay: Alexa568-SP trafficking in HEK-NK1R cells; format: cell-based, rat; details: 30 min at 37° C.
[2] = tested on: SP-IR and CGRP-IR release; assay: Neuropeptide release from mouse dorsal spinal cord; details: 30 μM; capsaicin 0.3 μM, 10 min
Protocol: Slices (0.4 mm) of mouse dorsal spinal cord (combined cervical, thoracic, lumbar-sacral segments) were superfused (0.4 ml·min^−1) with Krebs' solution (mM: NaCl 119, NaHCO3 25, KH2PO4 1.2, MgSO4 1.5, CaCl2 2.5, KCl 4.7, D-glucose 11 mM; […], 37° C.) containing 0.1% BSA, 1 μM phosphoramidon and 1 μM captopril. […] Tissues were then superfused with capsaicin (0.3 μM, 10 min) in the presence of inhibitors or controls. Superfusate (10 min collections, 4 ml) was collected before, during and after capsaicin stimulation, and analyzed for SP-IR and CGRP-IR (Bertin Pharma). […] Detection limits of the assays were 2 pg·ml^−1 for SP-IR and 5 pg·ml^−1 for CGRP-IR. Results are expressed as fmol·g^−1·20 min^−1.

[3] = tested on: NK1R; assay: NK1R endocytosis in rat spinal neurons in vivo; details: lamina I neurons; i.t. 50 μM 30 min before intraplantar capsaicin; 10 min after capsaicin
Protocol: The spinal cord was collected 10 min later for localization of the NK1R. In controls (intrathecal, intraplantar vehicle), NK1R-IR was mostly at the plasma membrane of the soma and neurites of lamina I neurons (80.7±1.6% of total NK1R-IR within […] of the soma plasma membrane).
After 10 min, rats were transcardially perfused with PBS and then 4% PFA. The spinal cord was removed, immersion fixed in PFA (2 h, 4° C.), and cryoprotected (30% sucrose, PBS, 24 h, 4° C.). The spinal cord (T12 to L4) was embedded in OCT and […] serial coronal sections were cut into 48-well plates containing PBS. Free-floating sections were blocked in PBS containing 10% normal horse serum (1 h, RT). Sections were incubated with mouse anti-NeuN (1:20,000; AbCam) and either rabbit anti-NK1R (1:5,000, #94168) or rabbit anti-pERK (1:200; Cell Signaling Technology) in PBS containing 3% normal horse serum (48 h, 4° C.). Sections were washed (4×20 min in PBS) and incubated with donkey anti-rabbit Alexa488 (1:8,000) and donkey anti-mouse Alexa568 (1:2,000 (Life Technologies) (1 h, RT). Sections were washed, incubated with DAPI (10 μg/ml, 5 min), and mounted in Vectashield (Vector Laboratories).
Tissues and cells were observed using a Leica SP8 confocal microscope using HCX PL APO 40× (NA 1.30) and HCX PL APO 63× (NA 1.40) oil objectives. Z stacks were collected of NKiR-positive neurons in lamina I of the dorsal horn. Video projections of Z stacks were made using Imaris Software (Bitplane). NK1R endocytosis and pERK expression were quantified using ImageJ. To quantify NK1R internalization in lamina I neurons, the border of the cytoplasm of the neuronal soma was defined by NeuN fluorescence, and NK1R fluorescence within 5 pixels (0.5 μm) of the border was defined as plasma membrane-associated receptor. The ratio of plasma membrane to cytosolic NK1R-IR fluorescence was determined in >6 lamina I neurons per condition. To quantify ERK activation, the ratio of the number of pERK-IR neurons to total Neu-N-positive neurons in lamina I was determined in >6 fields (×40 objective) per condition.

[4] = tested on: formalin-evoked nocifensive behavior in mice; assay: Formalin-evoked nocifensive behavior in mice; format: in vivo, mouse; details: for effect on formalin-evoked nocifensive behavior: i.t. 30 min before intraplantar formalin
Source text: (§1) Investigators were unaware of test agents.

[5] = tested on: CFA-induced mechanical hyperalgesia in mice; assay: CFA-induced mechanical hyperalgesia in mice; format: in vivo, mouse; details: for effect on CFA-induced sustained mechanical hyperalgesia: endocytic inhibitor i.t. 36 h after CFA
Source text: as §1

[6] = tested on: capsaicin-evoked mechanical hyperalgesia in mice; assay: Capsaicin-evoked mechanical hyperalgesia and edema in mice
[7] = molecular target: NK1R (Rattus norvegicus, UniProt P14600); assay: FRET biosensors of compartmentalized signaling (ERK, PKC, cAMP) in NK1R-expressing HEK293 cells; format: cell-based; design: Full length and truncated 6312 rat HA-NK1R have been described; expressed in transfected cells; host or cells: HEK293 (transient); details: for effect on SP activation of cytosolic ERK / effect on SP-induced plasma membrane cAMP / effect on plasma membrane PKC activity: endocytic inhibitor plus SP 1 nM; for effect on SP stimulation of cytosolic PKC / effect on SP stimulation of cytosolic cAMP / effect on SP stimulation of nuclear ERK: endocytic or signaling inhibitor plus SP 1 nM
Protocol: To study the link between NK1R trafficking and signaling, the NK1R and Förster Resonance Energy Transfer (FRET) biosensors targeted to detect activated ERK in the cytosol (CytoEKAR) or nucleus (NucEKAR, FIG. 2A), activated PKC at the plasma membrane (pmCKAR) or in the cytosol (CytoCKAR, FIG. 2C), and cAMP at the plasma membrane (pmEpac2) or in the cytosol (CytoEpac2, FIG. 2E) were expressed in HEK293 cells.
HEK293 cells were transfected with 55 ng/well rat NK1R with N-terminal HA. 11 epitope tag (HA-NK1R) or CLR plus RAMP1 and 40 ng/well FRET biosensors. FRET was assessed 48 h after transfection, following serum restriction (0.5% FBS overnight). For experiments using clathrin or dynamin siRNA, cells were transfected with 55 ng/well rat HA-NK1R, 40 ng/well FRET biosensor and 25 nM/well scrambled, clathrin or dynamin ON-TARGETplus SMARTpool siRNA (GE Dharmacon). FRET was assessed 72 h after transfection, following serum restriction (0.5% FBS overnight). Cells were equilibrated in HBSS at 37° C. and FRET was analyzed using a GE Healthcare INCell 2000 Analyzer. For GFP/RFP emission ratio analysis, cells were sequentially excited using a FITC filter (490/20) with emission measured using dsRed (605/52) and FITC (525/36) filters, and a polychroic optimized for the FITC/dsRed filter pair (Quad4). For CFP/YFP emission ratio analysis, cells were sequentially excited using a CFP filter (430/24) with emission measured using YFP (535/30) and CFP (470/24) filters, and a polychroic optimized for the CFP/YFP filter pair (Quad3). Cells were imaged every 1 min, allowing image capture of 14 wells per minute. Baseline emission ratio images were captured for 4 min. […] Cells were then stimulated with the positive control (200 nM phorbol 12,13-dibutyrate for ERK; 200 nM phorbol 12,13-dibutyrate with phosphatase inhibitor cocktail for PKC; 10 μM forskolin, 100 μM 3-isobutyl-1-methylxanthine, 100 nM PGE1 for cAMP) for 10 min to generate a maximal increase, and positive emission ratio images were captured for 4 min. Data were analyzed as described and expressed as emission ratios relative to baseline for each cell (F/F0). Cells with >10% change in F/F0 after stimulation with positive controls were selected for analysis.

[8] = i.t. 30 min before intraplantar capsaicin
[9] = i.t. 36 h after intraplantar CFA
[10] = i.t. 3 h before intraplantar capsaicin
[11] = preincubated 30 min, then immediately challenged with SP

Chain of NK1R (Rattus norvegicus, UniProt P14600) (P14600 whole entry, the tested form may be a part): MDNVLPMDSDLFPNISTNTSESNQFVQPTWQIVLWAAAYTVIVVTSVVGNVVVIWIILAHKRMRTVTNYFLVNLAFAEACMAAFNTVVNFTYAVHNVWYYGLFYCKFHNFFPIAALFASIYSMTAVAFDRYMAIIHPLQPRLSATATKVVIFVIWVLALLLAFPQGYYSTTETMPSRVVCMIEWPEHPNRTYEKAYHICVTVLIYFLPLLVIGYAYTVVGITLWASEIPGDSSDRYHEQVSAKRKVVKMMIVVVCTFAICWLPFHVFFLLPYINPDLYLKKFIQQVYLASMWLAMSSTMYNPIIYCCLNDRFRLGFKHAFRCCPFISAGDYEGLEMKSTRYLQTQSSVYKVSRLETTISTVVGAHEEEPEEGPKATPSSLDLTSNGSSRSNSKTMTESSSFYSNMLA

O=C(N/N=C/c1cc(O)c(O)cc1O)c1cc2ccccc2cc1O [Dy4]
effect on Alexa568-SP redistribution to endosomes [1]: caused retention of Alexa568-SP in vesicles close to the plasma membrane | effect on basal or capsaicin-stimulated release of SP-IR and CGRP-IR [2]: did not affect | NK1R-IR at plasma membrane (% membrane) [3]: 59.6±0.2% | effect on formalin-evoked nocifensive behavior [4]: inhibited both phases of nocifensive behavior | effect on CFA-induced sustained mechanical hyperalgesia [5]: partially reversed | effect on capsaicin-evoked edema (left paw thickness) [6, 8]: unaffected | effect on capsaicin-evoked mechanical hyperalgesia (von Frey, left paw) [6, 8]: inhibited hyperalgesia | effect on SP activation of cytosolic ERK [7]: did not suppress SP activation of cytosolic ERK or plasma membrane cAMP, but caused both responses to become sustained | effect on SP-induced plasma membrane cAMP [7]: did not suppress SP activation of cytosolic ERK or plasma membrane cAMP, but caused both responses to become sustained | effect on plasma membrane PKC activity [7]: amplified plasma membrane PKC activity | effect on SP stimulation of cytosolic PKC [7]: abolished | effect on SP stimulation of cytosolic cAMP [7]: abolished | effect on SP stimulation of nuclear ERK [7]: abolished

O=C1NC(=NS(=O)(=O)c2cccc3ccccc23)S/C1=C\c1ccc(Br)cc1 [PS2]
effect on Alexa568-SP redistribution to endosomes [1]: caused retention of Alexa568-SP in vesicles close to the plasma membrane | effect on basal or capsaicin-stimulated release of SP-IR and CGRP-IR [2]: did not affect | NK1R-IR at plasma membrane (% membrane) [3]: 69.0±1.1% | effect on formalin-evoked nocifensive behavior [4]: inhibited both phases of nocifensive behavior | effect on CFA-induced sustained mechanical hyperalgesia [5]: partially reversed | effect on capsaicin-evoked edema (left paw thickness) [6, 8]: unaffected | effect on capsaicin-evoked mechanical hyperalgesia (von Frey, left paw) [6, 8]: inhibited hyperalgesia | effect on paw withdrawal responses of the uninjected right hind paw ([6]; intrathecal treatment): did not affect | effect on SP activation of cytosolic ERK [7]: did not suppress SP activation of cytosolic ERK or plasma membrane cAMP, but caused both responses to become sustained | effect on SP-induced plasma membrane cAMP [7]: did not suppress SP activation of cytosolic ERK or plasma membrane cAMP, but caused both responses to become sustained | effect on plasma membrane PKC activity [7]: amplified plasma membrane PKC activity | effect on SP stimulation of cytosolic PKC [7]: abolished | effect on SP stimulation of cytosolic cAMP [7]: abolished | effect on SP stimulation of nuclear ERK [7]: abolished

CC(=O)N[C@@H](CC(=O)O[C@H]1CC[C@@]2(C)[C@@H](CC[C@@H]3[C@@H]2CC[C@]2(C)[C@@H]([C@H](C)CCCC(C)C)CC[C@@H]32)C1)C(=O)NCCOCCOCCOCCOCCC(=O)NCCOCCOCCOCCC(=O)NCCOCCOCCOCCOCCC(=O)N[C@H](CCCNC(=N)N)C(=O)N1CCC[C@H]1C(=O)N[C@@H](CCCCN)C(=O)N1CCC[C@H]1C(=O)N[C@@H](CCC(N)=O)C(=O)N[C@@H](CCC(N)=O)C(=O)N[C@H](Cc1c[nH]c2ccccc12)C(=O)N[C@@H](Cc1ccccc1)C(=O)N[C@H](Cc1c[nH]c2ccccc12)C(=O)N[C@@H](CC(C)C)C(=O)N[C@@H](CC(C)C)C(N)=O [Compound 1] (Ac-D(X1)[PEG4][PEG3][PEG4][dR]PKPQQ[dW]F[dW]LL-NH2)
effect on formalin-evoked nocifensive behavior (both phases) ([4]; i.t. 3 h before intraplantar formalin): markedly inhibited both phases of nocifensive behavior | duration of analgesia [5, 9]: > 6 h | time after which analgesic [5, 9]: 4 h | delay of analgesia ([6]; i.t. 30 min after capsaicin): 3 h | duration of analgesia ([6]; i.t. 30 min after capsaicin): > 6 h | duration of inhibition of capsaicin-evoked hyperalgesia [6, 10]: > 120 min | effect on capsaicin-evoked mechanical hyperalgesia (von Frey, left paw) [6, 10]: markedly inhibited capsaicin-evoked hyperalgesia | antagonism of SP activation of cytosolic ERK, pre-incubation [7, 11]: blocked activation of nuclear and cytosolic ERK | antagonism of SP activation of nuclear ERK, pre-incubation [7, 11]: blocked activation of nuclear and cytosolic ERK | antagonism of SP activation of nuclear ERK, pulse incubation ([7]; pulse incubated 30 min, washed, SP 4 h later): alone inhibited nuclear ERK
